Patent publication US20040082623A1, “Fmoc-l-leucine and derivatives thereof as ppar-gamma agonists” (priority 2003, published 2004)

Assays:
[1] = tested on: C57BL/6j mice; assay: Intraperitoneal glucose tolerance test in C57BL/6j mice; assay type: in vivo; details: for maximum glucose levels in IPGTT: 7 days, control 440
Experimental: Mice were treated with 2 different doses of F-L-Leu (10 and 30 mg/kg/days) during 7 days and then IPGTT was performed.

[2] = target: T1, PPARγ2 (Homo sapiens, UniProt P37231); assay: Transient transfection, PPARγ2 reporter (luciferase/β-galactosidase) in Hep G2 cells; assay type: cell-based; parameters: a construct containing the entire cDNA of the human PPARγ2 (hPPARγ2); expressed in transfected cells; host or cells: Hep G2
T1 sequence (P37231 1-505): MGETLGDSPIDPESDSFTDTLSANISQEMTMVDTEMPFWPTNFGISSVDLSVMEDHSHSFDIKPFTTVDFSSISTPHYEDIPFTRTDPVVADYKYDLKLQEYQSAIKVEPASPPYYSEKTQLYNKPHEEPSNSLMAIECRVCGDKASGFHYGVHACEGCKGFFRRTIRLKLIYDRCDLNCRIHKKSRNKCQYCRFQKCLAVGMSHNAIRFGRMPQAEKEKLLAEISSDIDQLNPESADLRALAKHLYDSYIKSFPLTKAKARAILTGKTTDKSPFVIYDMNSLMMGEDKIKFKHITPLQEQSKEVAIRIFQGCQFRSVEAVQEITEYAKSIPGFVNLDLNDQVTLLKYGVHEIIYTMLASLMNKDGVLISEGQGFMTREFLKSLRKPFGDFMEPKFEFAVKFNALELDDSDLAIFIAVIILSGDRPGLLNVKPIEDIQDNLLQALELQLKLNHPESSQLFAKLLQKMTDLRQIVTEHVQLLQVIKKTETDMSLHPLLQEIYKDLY
Experimental: Hep G2 cells were co-transfected with an expression vector for PPARγ2 (0.1 μg/well), pGL3-(Jwt)3TKLuc reporter construct (0.5 μg/well), and pCMV-βGal (0.5 μg/well), as a control of transfection efficiency (0.5 μg/well). The were then grown during 24 h in the presence or absence of indicated compound Activation is expressed as relative luciferase activity/β-galactosidase activity. Each point was performed in triplicate. This figure is representative of three independent experiments.
RK13 cells (A and D), CV1 cells (B) or Hep G2 cells (C) were co-transfected with an expression vector for PPARγ2 (0.1 μg/well), pGL3-(Jwt)3TKLuc reported construct (0.5 μg/well), and pCMV-βGal (0.5 μg/well), as a control of transfection efficiency (0.5 μg/well). They were then grown during 24 h in the presence or absence of indicated compound. Activation is expressed as relative luciferase activity/β ? galactosidase activity. Each point was performed in triplicate, and each figure i ? representative of four independent experiments.
The CV1, RK-13, and Hep G2 cell lines were obtained from ATCC (Rockville, Md.). Cells were maintained in Dulbecco's modified Eagle's minimal essential medium (DMEM) supplemented with 10% fetal calf serum (FCS), L-glutamine, and antibiotics. Transfections with chloramphenicol acetyltransferase (CAT) or luciferase (luc.) reporter constructs were carried out exactly as described previously (Schoonjans et al., 1996). The pGL3-(Jwt)3TKLuc and the pGL3-(Jwt)3TKCAT reporter constructs contain both three tandem repeats of the J site of the apolipoprotein A-II promoter cloned upstream of the herpes simplex virus thymidine kinase (TK) promoter and the luciferase or the CAT reporter genes respectively (Vu-Dac et al., 1995). The following expression vectors were used; pSG5-hPPARγ2, a construct containing the entire cDNA of the human PPARγ2 (hPPARγ2) (Fajas et al., 1997); pSG5-mPPARα (Isseman et al., 1993); and pCMV-βGal, as a control of transfection efficiency.

[3] = tested on: TNBS-treated Balb/c mice; assay: TNBS-induced colitis in Balb/c mice; assay type: in vivo; details: 50 mg/kg/day
Experimental: FIG. 9: F-L-Leu protects against colon inflammation in TNBS-treated Balb/c Mice. A: Ameho histologic scores (left panel) and survival rate (right panel) in TNBS-treated mice injected either with DMSO or F-L-Leu (50 mg/kg/day). B: TNFα and IL-1β mRNA levels in the colon of TNBS-treated mice injected with DMSO or F-L-Leu (50 mg/kg/day). Results are expressed as mean±SEM.
RNA was isolated from 3T3-L1 cells by the acid guanidinium ? thiocyanate/phenol/chloroform method (Chomczynski and Sacchi, 1987). Northern blot analysis of total cellular RNA was performed as described (Auwerx et al., 1989) ? Lipoprotein lipase (LPL), aP2 and 36B4 were used as probes (Graves et al., 1992 ? Laborda, 1991; Lefebvre et al., 1997). For RT-competitive PCR, total RNA (5-10 μg ? was reverse transcribed into complementary DNA (cDNA) (Desreumaux et al., 1999 ? Fajas et al., 1997). The RT reaction mixture was amplified by PCR using sense an ? antisense primers specific for β-actin, TNFα and IL-1β. The samples were subjected t ? 40 PCR cycles, consisting of denaturation for 1 min at 94° C., primer annealing for ? min at 52-58° C., and primer extension for 1.5 min at 72° C. using a Gene Amp PCR ? System 9700 (Perkin-Elner Corporation, Foster City, Calif.). The quantity of mRNA was expressed as the number of TNFα or IL-1β cDNA per β-actin cDNA molecules.
Male Balb/c mice (8 per group) were used for the colitis studies (Jackson laboratories, Bar Harbor, Me.). Colitis was induced by administration of 40 μl of a solution of TNBS (150 mg/kg, Fluka, Saint Quentin Fallavier, France) dissolved in NaCl 0.9% and mixed with an equal volume of ethanol (50% ethanol). This solution was administered intrarectally via a 3.5 F catheter (Ref EO 3416-1, Biotrol, Chelles, France) inserted 4 cm proximal to the anus in anesthesized mice [Xylasine (50 mg/kg of Rompun® 2%, Bayer Pharma, Puteaux, France) and Ketamine (50 mg/kg of Imalgene® 1000, Rhône Mérieux, France)]. Animals were sacrified by cervical dislocation under ether anesthesia two days after TNBS administration. The colon was quickly removed, opened, washed. A 2 cm colonic specimen located precisely 2 cm above the anal canal was dissected systematically in 4 parts. One part was fixed overnight in 4% paraformaldehyde acid at 4° C., dehydrated in alcohol and embedded in paraffin. Sections (5 μm) were then deparaffined with xylene and rehydrated by ethanol treatment. Stained sections with haematoxylin-eosin were examined blindly by a pathologist and scored according to the Ameho criteria (Ameho et al., 1997). The other parts of the colon were used for RNA isolation for the quantification of TNFα and IL1β mRNA expression.

Structure (SMILES): CC(C)CC(NC(=O)OCC1c2ccccc2-c2ccccc21)C(=O)O [F-L-Leu, N-(9-fluroroenylmethyloxycarbonyl)-L-Leucine]
- insulin sensitivity in normal animals ([1]; 30 mg/kg/day): significantly improve insulin sensitivity
- clearance of intraperitoneally administered glucose vs vehicle ([1]; C57BL/6j, 10 mg/kg/day): comparable rate
- maximum glucose levels in IPGTT ([1]; C57BL/6j, 10 mg/kg/day i.p.): 440 mg/dL
- maximum glucose levels in IPGTT ([1]; C57BL/6j, 30 mg/kg/day i.p.): 320 mg/dL
- area under the curve in IPGTT ([1]; C57BL/6j, 30 mg/kg/day, vs control or lower dose): significantly lower
- optimal concentration for PPARγ activation compared with PG J2 ([2]; HepG2): similar
- optimal concentration relative to concentration of rosiglitazone or pioglitazone necessary to reach the same efficacy ([2]; HepG2, fold higher, pioglitazone data not shown): 100 fold
- PPARγ activation (relative luciferase activity/β-galactosidase activity) ([2]; HepG2 cells, pSG5-hPPARγ2, 24 h, F-L-leu at 10^−5 M): Significant PPARγ activity
- concentration required for optimal PPARγ activation ([2]; human HepG2 cells): 10^−5 M
- potency in transfection experiments relative to rosiglitazone ([2]; summary statement, cell line not named): two orders of magnitude less potent
- Ameho histologic score [3]: reduced significantly
- IL-1β mRNA levels in colon [3]: significant decrease
- TNFα mRNA levels in colon [3]: significant decrease
- survival rate ([3]; 4 days, two days after TNBS, control 76%): 100%
